# Source: patent publication US5112818A, “2-(2-cyclopropylpyrrolidin-4-ylthio)carbapenhem derivatives” (Banyu Pharmaceutical Co., Ltd., priority 1989, dated 1992)
# Where two headings read alike, the source gives them in different places.
# How the values were obtained:
# S. aureus 209P NIHJ JC1 = assay: in vitro antibacterial activity, agar plate dilution method (MIC); type: cell-based; conditions: Staphylococcus aureus, 10^6 CFU/ml, 37° C., 16 hours
# Method: (§1) One platinum loopful of each test microorganism incubated overnight in Mueller Hinton broth, was inoculated to Mueller Hinton agara (inoculum size: 10^6 CFU/ml). Such culture media contained antibacterial agents in various concentrations. After incubation at 37° C. for 16 hours, the minimum inhibitory concentrations (MIC: μg/ml) were measured.
# S. aureus JS1 = assay: as above; type: cell-based; conditions: Staphylococcus aureus; 10^6 CFU/ml; 37° C., 16 hours; S. aureus JS1, lactamase producing microorganism
# Method: as §1
# S. aureus MB4970 = assay: as above; type: cell-based; conditions: Staphylococcus aureus, 10^6 CFU/ml, 37° C., 16 hours
# Method: as §1
# Meth-R. S. aureus = assay: relative antibacterial potency, disc diffusion test (Bauer et al.); type: cell-based; conditions: ratio to thienamycin (=1.0); larger value = higher activity
# Method: The compounds of the present invention show strong antibacterial activities against various gram positive bacteria and gram negative bacteria. As representative examples, the antibacterial activities of the compounds of the present invention described in the Examples, were measured by a disc diffusion test by the method of Bauer et al. (Amer. J. Clin. Pathol., vol. 45, p. 493 (1966)). Thienamycin or imipenem was used as the internal standard.
# MIC of each test compound was calculated from the diameter of the inhibition ring formed by the disc containing the test compound by using the calculation formula reported by Humphrey and Lightbown (J. Gen. Microbiol., vol. 7, p. 129 (1952)). For each microorganism, a geometrical average of MIC was obtained, and the activity ratio to thienamycin was calculated.
# The antibacterial activities are represented by the ratio to thienamycin (=1.0), whereby the larger the numerical value, the higher the activities.
# [1] = in words; background art; cited from earlier work
# [2] = tested on: gram positive bacteria and gram negative bacteria; conditions: in words, cited from earlier work
# β-lactamase = conditions: in words; cited from earlier work
# kidney = conditions: in words; due to the decomposition products; cited from earlier work
# [3] = tested on: highly methicillin resistant Staphylococcus aureus; conditions: in words; clinical field; cited from earlier work
# [4] = tested on: imipenem resistant Pseudomonas aeruginosa; conditions: in words; clinical field; cited from earlier work
# renal dehydropeptidase I = conditions: cited from earlier work
# DHP-I [5] = assay: DHP-I susceptibility (method by Kropp et al.); conditions: ratio to imipenem (=1.0); smaller value = higher stability
# Text: (§2) The DHP-I susceptibility was quantitatively analyzed by the method by Kropp et al., Antimicrob.,- Agents Chemother., vol. 22, p. 62-70 (1982), whereby the smaller the numerical value representing the ratio to imipenem (=1.0), the higher the stability.
# DHP-I [6] = tested on: DHP-I
# Text: as §2
# [7] = tested on: methicillin resistant Staphylococcus aureus; conditions: in words; background art; cited from earlier work
# [8] = in words; cited from earlier work
smiles,measurement,setting,value
"C[C@@H](O)[C@H]1C(=O)N2C(C(=O)O)=C(S[C@@H]3CN[C@H](C4CC4C(N)=O)C3)[C@H](C)[C@H]12 (single isomer, unassigned) [Example 6]",MIC,S. aureus 209P NIHJ JC1,0.025 µg/mL
same,MIC,S. aureus JS1,0.78 µg/mL
same,MIC,S. aureus MB4970,0.05 µg/mL
same,"Relative antibacterial potency, Meth-R. S. aureus",Meth-R. S. aureus,5.41
C[C@@H](O)[C@H]1C(=O)N2C(C(=O)O)=C(SCCN=CN)C[C@H]12 [imipenem],"Relative antibacterial potency, Meth-R. S. aureus",Meth-R. S. aureus,2.57
same,chemical stability,[1],remarkably improved over thienamycin
same,antibacterial activities relative to thienamycin,[2]; various types of bacteria,equal or higher level than thienamycin
same,β-lactamase resistance,β-lactamase,has β-lactamase resistance
same,toxicity against the kidney,kidney,presents toxicity against the kidney due to the decomposition products
same,treating effects against imipenem-resistant highly methicillin resistant Staphylococcus aureus,[3],does not show adequate treating effects
same,treating effects against imipenem resistant Pseudomonas aeruginosa,[4],does not show adequate treating effects
same,decomposition by / stability against DHP-I,"renal dehydropeptidase I; in words, background art",likely to be decomposed by DHP-I in the human kidney
same,DHP-I susceptibility,DHP-I [5],1.0
C[C@@H](O)[C@H]1C(=O)N2C(C(=O)O)=C(S[C@@H]3CN[C@H](C(=O)N(C)C)C3)[C@H](C)[C@H]12 [meropenem],"Relative antibacterial potency, Meth-R. S. aureus",Meth-R. S. aureus,3.15
same,DHP-I susceptibility,DHP-I [6],0.12
same,antibacterial activities against highly methicillin resistant Staphylococcus aureus,[7],not adequate
same,decomposition by / stability against DHP-I,renal dehydropeptidase I,stability against DHP-I substantially improved
C[C@@H](O)[C@H]1C(=O)N2C(C(=O)O)=C(SCCN)C[C@H]12 [thienamycin],chemical stability,[1],chemically unstable
same,recovery rate in the urine,[8],low
same,antibacterial activities,[2]; gram positive and gram negative bacteria,strong antibacterial activities over a wide range against gram positive bacteria and gram negative bacteria
same,decomposition by / stability against DHP-I,"renal dehydropeptidase I; in words, background art",likely to be decomposed by a certain enzyme in vivo such as renal dehydropeptidase I
